For 17 compounds, IC50 results are on record in patent publication US20230365589A1, “NOVEL AMINE DERIVATIVES” (Sumitomo Pharma Co., Ltd., priority 2020, published 2023).

What all share (assay type): biochemical
The target of one test is T1, DYRK3 (Homo sapiens, UniProt O43781).
T1 construct: purchased Carna Biosciences, Inc. 04-133
T1 sequence (O43781 1-568 isoform O43781-2): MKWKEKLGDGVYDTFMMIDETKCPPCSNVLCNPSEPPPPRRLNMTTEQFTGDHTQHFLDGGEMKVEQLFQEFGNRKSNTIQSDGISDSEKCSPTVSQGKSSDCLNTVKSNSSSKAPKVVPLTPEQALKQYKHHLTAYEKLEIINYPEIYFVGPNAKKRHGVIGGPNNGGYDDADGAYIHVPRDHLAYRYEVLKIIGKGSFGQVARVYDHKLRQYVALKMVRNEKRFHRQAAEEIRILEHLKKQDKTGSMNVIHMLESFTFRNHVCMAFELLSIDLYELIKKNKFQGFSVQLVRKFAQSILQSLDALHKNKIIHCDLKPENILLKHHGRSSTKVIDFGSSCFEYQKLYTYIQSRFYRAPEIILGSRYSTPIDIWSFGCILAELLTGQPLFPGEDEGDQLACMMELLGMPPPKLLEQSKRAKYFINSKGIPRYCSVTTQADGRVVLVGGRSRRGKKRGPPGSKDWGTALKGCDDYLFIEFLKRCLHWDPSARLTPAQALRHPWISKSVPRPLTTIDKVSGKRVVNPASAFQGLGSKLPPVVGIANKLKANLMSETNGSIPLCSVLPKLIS
The experiment in a line: Inhibition test on activity of DYRK family, mobility shift assay (MSA): DYRK3. Particulars: MSA, FITC-labeled DYRKtide peptide, ATP 20 μM; read-out: Inhibitory activity DYRK 3 (IC50 class). On the procedure: (§1) [Inhibition Test on Activity of DYRK Family (DYRK1A, DYRK1B, DYRK2, and DYRK3)]
(§2) The kinase activity was measured by mobility shift assay (MSA) method using QuickScout Screening Assist™ MSA (commercially available kit manufactured by Carna Biosciences, Inc.). The substrate of the kinase reaction used was an FITC-labeled DYRKtide peptide included in the kit. An assay buffer [20 mM HEPES, 0.01% Triton X-100™, 2 mM dithiothreitol, pH 7.5]was used to create a substrate mixture solution with a substrate (4 μM), MgCl2(20 mM), and ATP (DYRK1A: 100 μM; DYRK1B: 200 μM; DYRK2: 40 μM; and DYRK3: 20 μM). In addition, kinases (DYRK1A: manufactured by Carna Biosciences, Inc., Cat. No. 04-130; DYRK1B: manufactured by Carna Biosciences, Inc., Cat. No. 04-131; DYRK2; manufactured by Carna Biosciences, Inc., Cat. No. 04-132; and DYRK3; manufactured by Carna Biosciences, Inc., Cat. No. 04-133) were diluted with the assay buffer to prepare enzyme solutions (DYRK1A: 0.2 ng/μL; DYRK1B: 0.08 ng/μL; DYRK2: 0.04 ng/μL; and DYRK3: 0.25 ng/μL). The 10 mM solution of the test compound in DMSO was further diluted with DMSO to 10 levels of the concentration (0.00003 mM, 0.0001 mM, 0.0003 mM, 0.001 mM, 0.003 mM, 0.01 mM, 0.03 mM, 0.1 mM, 0.3 mM, and 1 mM), each of which was subjected to 25-fold dilution with the assay buffer to obtain a drug solution (4% DMSO solution). 5 μL of the drug solution or a control solution (4% DMSO-assay buffer), 5 μL of the substrate mixture solution, and 10 μL of the enzyme solution were mixed in the wells of a polypropylene 384-well plate and allowed to react at room temperature for 1 hour, and then the reaction was quenched by adding 60 μL of the termination buffer included in the kit. Subsequently, the quantities of the substrates (S) and the phosphorylated substrate (P) in the reaction solution were measured using LabChip EZ Reader II system (manufactured by Caliper Life Sciences) according to the protocol of the assay kit.
(§3) The heights of the peaks of the “substrate” and the “phosphorylated substrate” were expressed as S and P, respectively, and a blank containing the assay buffer instead of the enzyme solution was also measured.
(§4) The inhibition rate (%) of the test compound was calculated according to the following equation:
(§5) Inhibition rate (%)=(1−(C−A)/(B−A))×100 • wherein, A, B, and C represent P/(P+S) of the blank well, P/(P+S) of the control solution well, and P/(P+S) of the compound-containing well, respectively.
(§6) The IC50 value was calculated via a regression analysis of the inhibition rate and the test compound concentration (logarithmic value).
(§7) The inhibiting activities of representative compounds of the present invention are shown against DYRK1A, DYRK1B, DYRK2, and DYRK3 in Tables.

The target of a further test is T2, DYRK2 (Homo sapiens, UniProt Q92630).
T2 construct: purchased Carna Biosciences, Inc. 04-132
T2 sequence (Q92630 74-601 limits assumed): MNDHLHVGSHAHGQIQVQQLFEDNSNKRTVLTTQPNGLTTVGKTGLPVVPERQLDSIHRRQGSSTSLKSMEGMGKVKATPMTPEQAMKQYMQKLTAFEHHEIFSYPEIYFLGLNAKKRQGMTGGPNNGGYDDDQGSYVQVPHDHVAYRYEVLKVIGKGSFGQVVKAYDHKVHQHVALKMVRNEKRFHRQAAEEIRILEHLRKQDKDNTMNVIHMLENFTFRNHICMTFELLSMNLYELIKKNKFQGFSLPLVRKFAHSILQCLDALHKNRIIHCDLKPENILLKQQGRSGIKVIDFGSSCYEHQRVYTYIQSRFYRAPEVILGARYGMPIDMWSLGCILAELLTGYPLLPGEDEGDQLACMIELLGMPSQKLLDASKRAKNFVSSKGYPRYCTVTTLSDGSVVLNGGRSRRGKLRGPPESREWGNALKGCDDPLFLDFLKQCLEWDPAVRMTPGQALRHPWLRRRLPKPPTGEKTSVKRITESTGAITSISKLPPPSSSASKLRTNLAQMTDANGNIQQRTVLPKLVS
The experiment in a line: Inhibition test on activity of DYRK family, mobility shift assay (MSA): DYRK2. As for the experimental part: as §1, §2, §3, §4, §5, §6, §7

The next test concerns the target T3, DYRK1A (Homo sapiens, UniProt Q13627).
T3 construct: purchased Carna Biosciences, Inc. 04-130
The experiment in a line: Inhibition test on activity of DYRK family, mobility shift assay (MSA): DYRK1A. On the procedure: as §1, §2, §3, §4, §5, §6

Setting [1] is: MSA, FITC-labeled DYRKtide peptide, ATP 40 μM, read-out: Inhibitory activity DYRK 2 (IC50 class).
The mark [2] stands for this setting: MSA, FITC-labeled DYRKtide peptide, ATP 100 μM, read-out: Inhibitory activity DYRK 1A (IC50 class).

Each structure is given as a SMILES string. Like-named read-outs stand apart in the source and are kept apart here.

Regarding `O=C1N[C@H]2CCN(C3COC3)C[C@H]2N1c1nc2c3c(ccc2s1)OCC3` (racemic) [Example 71, rac-(3aR,7aS)-3-(7,8-dihydrofuro[3,2-e][1,3]benzothiazol-2-yl)-5-(oxetan-3-yl)octahydro-2H-imidazo[4,5-c]pyridin-2-one], the IC50 at DYRK3 and on DYRK2 (setting [1]) was ≥ 1000 nM each time.

For the compound `O=C1N[C@H]2CCN(C3CCC3)C[C@H]2N1c1nc2c3c(ccc2s1)OCC3` (racemic) [Example 72, rac-(3aR,7aS)-5-cyclobutyl-3-(7,8-dihydrofuro[3,2-e][1,3]benzothiazol-2-yl)octahydro-2H-imidazo[4,5-c]pyridin-2-one], the IC50 at DYRK3 was ≥ 1000 nM; at DYRK2 (setting [1]), ≥ 1000 nM; at DYRK1A (setting [2]), 10 to 100 nM.

For the compound `O=C1N[C@H]2CCCN(C3COC3)C[C@H]2N1c1nc2c3c(ccc2s1)OCC3` (racemic) [Example 73, rac-(3aR,8aS)-3-(7,8-dihydrofuro[3,2-e][1,3]benzothiazol-2-yl)-5-(oxetan-3-yl)octahydroimidazo[4,5-c]azepin-2(1H)-one], the results for the IC50 on DYRK3, on DYRK2 (setting [1]) and on DYRK1A (setting [2]) were ≥ 1000 nM, 100 to 1000 nM and < 10 nM, respectively.

Consider `CN1CC[C@@H]2NC(=O)N(c3nc4c5c(ccc4s3)OCCO5)[C@@H]2C1` (racemic) [Example 76, rac-(3aR,7aS)-3-(7,8-dihydro[1,4]dioxino[2,3-e][1,3]benzothiazol-2-yl)-5-methyloctahydro-2H-imidazo[4,5-c]pyridin-2-one], for which the IC50 on DYRK3 is ≥ 1000 nM; on DYRK2 (setting [1]), ≥ 1000 nM; at DYRK1A (setting [2]) it was 10 to 100 nM.

On to `CN1CC[C@@H]2[C@H](C1)NC(=O)N2c1nc2c3c(ccc2s1)OCCO3` (racemic) [Example 77, rac-(3aR,7aS)-1-(7,8-dihydro[1,4]dioxino[2,3-e][1,3]benzothiazol-2-yl)-5-methyloctahydro-2H-imidazo[4,5-c]pyridin-2-one], for which the IC50 is 100 to 1000 nM on DYRK3, ≥ 1000 nM at DYRK2 (setting [1]) and 10 to 100 nM on DYRK1A (setting [2]).

For `CN1CC[C@@H]2[C@H](C1)NC(=O)N2c1nc2c3c(ccc2s1)OCO3` (racemic) [Example 78, rac-(3aR,7aS)-1-(2H-[1,3]dioxolo[4,5-e][1,3]benzothiazol-7-yl)-5-methyloctahydro-2H-imidazo[4,5-c]pyridin-2-one], the results for the IC50 on DYRK3, at DYRK2 (setting [1]) and at DYRK1A (setting [2]) were 100 to 1000 nM, ≥ 1000 nM and 10 to 100 nM, respectively.

On to `CN1CC[C@@H]2NC(=O)N(c3nc4c5c(ccc4s3)OCO5)[C@@H]2C1` (racemic) [Example 79, rac-(3aR,7aS)-3-(2H-[1,3]dioxolo[4,5-e][1,3]benzothiazol-7-yl)-5-methyloctahydro-2H-imidazo[4,5-c]pyridin-2-one], for which the IC50 at DYRK3 is ≥ 1000 nM; on DYRK2 (setting [1]), ≥ 1000 nM; at DYRK1A (setting [2]), 10 to 100 nM.

As for `O=C1N[C@H]2CCN(C3COC3)C[C@H]2N1c1nc2c3c(ccc2s1)OCCO3` (racemic) [Example 80, rac-(3aR,7aS)-3-(7,8-dihydro[1,4]dioxino[2,3-e][1,3]benzothiazol-2-yl)-5-(oxetan-3-yl)octahydro-2H-imidazo[4,5-c]pyridin-2-one], the IC50 is ≥ 1000 nM at DYRK3, ≥ 1000 nM at DYRK2 (setting [1]) and 10 to 100 nM at DYRK1A (setting [2]).

Consider `O=C1N[C@H]2CCN(C3COC3)C[C@H]2N1c1nc2c3c(ccc2s1)OCO3` (racemic) [Example 81, rac-(3aR,7aS)-3-(2H-[1,3]dioxolo[4,5-e][1,3]benzothiazol-7-yl)-5-(oxetan-3-yl)octahydro-2H-imidazo[4,5-c]pyridin-2-one], for which the values for the IC50 on DYRK3, on DYRK2 (setting [1]) and on DYRK1A (setting [2]) were ≥ 1000 nM, ≥ 1000 nM and 10 to 100 nM, respectively.

As to `CN1CCC[C@@H]2NC(=O)N(c3nc4c5c(ccc4s3)OCO5)[C@@H]2C1` (racemic) [Example 85, rac-(3aR,8aS)-3-(2H-[1,3]dioxolo[4,5-e][1,3]benzothiazol-7-yl)-5-methyloctahydroimidazo[4,5-c]azepin-2(1H)-one], the IC50 is ≥ 1000 nM on DYRK3, ≥ 1000 nM at DYRK2 (setting [1]) and 10 to 100 nM at DYRK1A (setting [2]).

For `O=C1N[C@H]2CCCN(C3COC3)C[C@H]2N1c1nc2c3c(ccc2s1)OCO3` (racemic) [Example 86, rac-(3aR,8aS)-3-(2H-[1,3]dioxolo[4,5-e][1,3]benzothiazol-7-yl)-5-(oxetan-3-yl)octahydroimidazo[4,5-c]azepin-2(1H)-one], the values for the IC50 on DYRK3, on DYRK2 (setting [1]) and at DYRK1A (setting [2]) were ≥ 1000 nM, ≥ 1000 nM and 10 to 100 nM, respectively.

With `C#CCN1CC[C@H]2NC(=O)N(c3nc4c5c(ccc4s3)OCC5)[C@H]2C1` (single isomer, unassigned) [Example 113], the figures for the IC50 on DYRK2 (read-out: Inhibitory activity DYRK 2) and on DYRK1A (read-out: Inhibitory activity DYRK 1A) were ≥ 1000 nM and 100 to 1000 nM, respectively.

`O=C1N[C@H]2CCN(C3COC3)C[C@@H]2N1c1nc2c3c(ccc2s1)OCC3` [Example 19, (3aS,7aS)-3-(7,8-dihydrofuro[3,2-e][1,3]benzothiazol-2-yl)-5-(oxetan-3-yl)octahydro-2H-imidazo[4,5-c]pyridin-2-one]: the IC50 at DYRK3 and at DYRK2 (setting [1]) was 100 to 1000 nM throughout.

Take `O=C1N[C@H]2COCC[C@H]2N1c1nc2c3c(ccc2s1)OCCO3` [Example 37, (3aR,7aR)-1-(7,8-dihydro[1,4]dioxino[2,3-e][1,3]benzothiazol-2-yl)hexahydropyrano[3,4-d]imidazol-2(3H)-one]: the IC50 on DYRK3 and on DYRK2 (setting [1]) was 100 to 1000 nM throughout.

For `O=C1N[C@H]2CNCC[C@H]2N1c1nc2c3c(ccc2s1)OCO3` [Example 52], the IC50 on DYRK3 and on DYRK2 (setting [1]) was 100 to 1000 nM in each case.

With `CN1CC[C@@H]2NC(=O)N(c3nc4c5c(ccc4s3)OCC5)[C@@H]2C12CC2` [Example 69], the IC50 at DYRK3 and at DYRK2 (setting [1]) was ≥ 1000 nM each time.

Turning to `CN1CC[C@H]2NC(=O)N(c3nc4c5c(ccc4s3)OCC5)[C@@H]2C12CC2` [Example 70], the figures for the IC50 at DYRK3 and on DYRK2 (setting [1]) were 100 to 1000 nM and ≥ 1000 nM, respectively.
